Test results reported in publication PMC12530842, “Potent, Selective, and Drug‐Like G Protein‐Coupled Receptor Kinase 5 and 6 Inhibitors: Design, Synthesis, and X‐Ray Structural Studies” (Chemmedchem, 2025).
“Also recorded” adds a separate entry of the source.

What was measured:
Format in all cases: biochemical
[1] = molecular target: T1, GRK5 (Homo sapiens, UniProt P34947); assay: GRK5 kinase inhibition assay, phosphorylation of tubulin ([γ-32P]-ATP); details: for Selectivity GRK2/GRK5: fold selectivity for GRK5 over GRK2; for IC50: phosphorylation of the soluble substrate tubulin, ± standard deviation from 3 to 4 independent experiments
T1 construct: Human GR K5 (residues 1- 590) w ild- type and D 311N mutant w ere expressed in E. co li Rosetta; His tag (inferred from nickel-NTA purification); made in house; host or cells: E. coli Rosetta (DE3)
Method: (§1) The inhibitory potency of synthetic compounds containing the N‐heterocyclic amide functionalities was evaluated against human GRK2, GRK5 and GRK6 using our in vitro assays‐, as reported previously.^[ [35], [37] ^] […] We then investigated the effect of (R)‐ and (S)‐Boc pyrrolidine carboxamide derivatives. […] These improvements of GRK5 IC50 values over their Boc‐derivatives (6c and 6d) indicated the bulky Boc group may not be able to fit as well in the catalytic site of these GRKs. On the other hand, sterically less demanding acetamide derivatives 6e and 6f were well accommodated consistent with their very good activity against GRK5, GRK6, and GRK2, but only with marginal selectivity against GRK2. […] We also examined the effect of 3(S)‐ and 3(R)‐Boc‐pyrrolidine derivatives.
(§2) Protein expression and purification.
(§3) Human GR K5 (residues 1- 590) w ild- type and D 311N mutant w ere expressed in E. co li Rosetta (D E3) and purified v ia nickel-nitrilotriacetic acid affinity chromatography, followed by tandem columns consisting of a HiTrap Q HP anion exchange chromatography column and a HiTrap SP HP cation exchange chromatography column, and finished by Superdex 200 Increase size -exclusion chromatography, as described previously. Human GRK6 (with T10A and mutations that eliminate palmitoylation sites) was expressed in Sf9 insect cells [ 2] and was purified w ith the same protocol for GR K5 [1]. Human GRK2 w as purified as described previously.
(§4) Kinase inhibition Assays.
(§5) Inhibit ion assays were conducted in a reaction mixture containing 20 mM H EPES pH 7. 0, 2 mM MgC l2, and 0.025% n- dodecyl-β-D-maltoside. Prior to reaction initiation, GR K5 or GR K6 at 50 nM was mixed w ith porcine brain tubulin ( PurSolutions) at a concentration of 500 nM. The assay w as started w ith a 30- second incubation of inhibitors, followed by the add it ion of 5 μ M ATP supplemented w ith radioactive [γ-32P]-AT P a t 60 C i/m mol (PerkinElm er Life Sciences). Re actions pro ceeded for 5 m inut es at ro o m te mpera ture a nd were terminated by adding 4X SDS loading buffer. T he reaction mixtures were then s eparated via SDS - PAG E, dried, and exposed using a phosphor imaging screen. Quantification was performed using a Personal Molecular Imager and Quantity One 1- D Analysis Software. Analogous inhibition assays were conducted on p urified GR K2 wit h a t ub ulin conce ntrat ion of 1 μ M. Data ana lysis was perf orme d usin g Graph Pa d Pr ism, and IC50 values wer e calculated based on three- parameter dose- dependent curves (with a Hill coefficient fixed at 1) plotting phosphate transfer against inhibitor concentration. At least three replicates were conducted to determine the mean and standard deviation of IC50 values as published previously . […]
(§6) (6) The final models w ere validated with MolProbity prior to depos ition along with structure factors in the Protein Data Bank. Atomic figures were created with Py mol (7). Cr ystallographic statistics are reported in Supplemental Table 1. Coordinates for inh ib itor 6t (GRL-098- 22) w ere deposited in the Protein Data Bank, with accession code 9BR K.
(§7) 1. Y. Chen, A. Sonawane, R. Manda, R. K. G adi, J. J. G. Tesmer, A. K. Ghosh. Development of a new class of potent and highly select ive G protein- coupled r eceptor kinase 5 inhibitors and structural insight from crystal structures of inhibitor complexes. Eur. J. Med. Chem. 2024, 264, 115931.
(§8) 2. D. T. Lodowski, V. M. T esmer, J. L. Benovic, J. J. Tesmer. The structure of G protein- coupled receptor kinase (GRK)-6 defines a second lineage of GRKs. J. Bio l. C he m. 2006, 281,16785- 16793.

[2] = molecular target: T2, GRK6 (Homo sapiens, UniProt P43250, C561S/C562S/C565S/T10A); assay: GRK6 kinase inhibition assay, phosphorylation of tubulin ([γ-32P]-ATP); details: for Selectivity GRK5/GRK6: fold selectivity for GRK6 over GRK5; for IC50: phosphorylation of the soluble substrate tubulin, ± standard deviation from 3 to 4 independent experiments
T2 construct: His tag (inferred: purified by the GRK5 protocol, which starts with nickel-NTA); made in house; host or cells: Sf9 insect cells
Method: as §1, §2, §3, §4, §5, §6, §7, §8

[3] = molecular target: T3, GRK2 (Homo sapiens, UniProt P25098); assay: GRK2 kinase inhibition assay, phosphorylation of tubulin ([γ-32P]-ATP); details: for IC50: phosphorylation of the soluble substrate tubulin, ± standard deviation from 3 to 4 independent experiments
T3 construct: made in house
T3 sequence (P25098 1-689): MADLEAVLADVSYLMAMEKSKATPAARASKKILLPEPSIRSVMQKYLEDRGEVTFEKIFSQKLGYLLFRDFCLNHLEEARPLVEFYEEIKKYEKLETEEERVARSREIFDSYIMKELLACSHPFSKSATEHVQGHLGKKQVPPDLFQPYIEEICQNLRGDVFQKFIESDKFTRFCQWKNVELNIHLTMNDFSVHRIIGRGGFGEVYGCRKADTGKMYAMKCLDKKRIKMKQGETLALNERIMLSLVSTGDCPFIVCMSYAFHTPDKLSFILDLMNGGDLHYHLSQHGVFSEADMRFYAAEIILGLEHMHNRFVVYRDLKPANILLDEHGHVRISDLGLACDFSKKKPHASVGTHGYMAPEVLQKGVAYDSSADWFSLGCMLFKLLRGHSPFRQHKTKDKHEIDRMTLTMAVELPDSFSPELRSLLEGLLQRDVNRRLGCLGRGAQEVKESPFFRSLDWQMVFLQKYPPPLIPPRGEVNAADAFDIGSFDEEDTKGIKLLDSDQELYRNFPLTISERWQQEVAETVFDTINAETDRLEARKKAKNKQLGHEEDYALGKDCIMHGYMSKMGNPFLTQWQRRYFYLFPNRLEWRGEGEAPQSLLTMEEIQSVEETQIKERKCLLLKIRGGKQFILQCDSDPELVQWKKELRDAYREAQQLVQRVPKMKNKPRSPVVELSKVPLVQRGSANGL
Method: as §1, §2, §3, §4, §5, §6, §7, §8

T1 sequence (P34947 whole entry, the tested form may be a part): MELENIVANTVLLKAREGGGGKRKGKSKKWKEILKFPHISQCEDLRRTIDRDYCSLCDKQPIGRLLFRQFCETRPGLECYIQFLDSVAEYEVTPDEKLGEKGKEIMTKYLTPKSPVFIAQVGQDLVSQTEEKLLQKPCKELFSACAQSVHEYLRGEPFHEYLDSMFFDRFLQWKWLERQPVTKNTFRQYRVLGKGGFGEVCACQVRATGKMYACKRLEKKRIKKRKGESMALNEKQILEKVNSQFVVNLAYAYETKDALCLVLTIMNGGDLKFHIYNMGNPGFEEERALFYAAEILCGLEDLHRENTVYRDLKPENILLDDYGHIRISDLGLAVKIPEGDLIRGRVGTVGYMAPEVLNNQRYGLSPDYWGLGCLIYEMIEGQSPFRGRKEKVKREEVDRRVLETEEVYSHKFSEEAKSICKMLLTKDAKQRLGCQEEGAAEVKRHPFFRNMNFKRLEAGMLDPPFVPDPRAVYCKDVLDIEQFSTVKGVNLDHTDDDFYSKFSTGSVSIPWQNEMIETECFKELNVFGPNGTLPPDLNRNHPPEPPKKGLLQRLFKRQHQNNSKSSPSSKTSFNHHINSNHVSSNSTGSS
T2 sequence (P43250 whole entry T10A/C561S/C562S/C565S): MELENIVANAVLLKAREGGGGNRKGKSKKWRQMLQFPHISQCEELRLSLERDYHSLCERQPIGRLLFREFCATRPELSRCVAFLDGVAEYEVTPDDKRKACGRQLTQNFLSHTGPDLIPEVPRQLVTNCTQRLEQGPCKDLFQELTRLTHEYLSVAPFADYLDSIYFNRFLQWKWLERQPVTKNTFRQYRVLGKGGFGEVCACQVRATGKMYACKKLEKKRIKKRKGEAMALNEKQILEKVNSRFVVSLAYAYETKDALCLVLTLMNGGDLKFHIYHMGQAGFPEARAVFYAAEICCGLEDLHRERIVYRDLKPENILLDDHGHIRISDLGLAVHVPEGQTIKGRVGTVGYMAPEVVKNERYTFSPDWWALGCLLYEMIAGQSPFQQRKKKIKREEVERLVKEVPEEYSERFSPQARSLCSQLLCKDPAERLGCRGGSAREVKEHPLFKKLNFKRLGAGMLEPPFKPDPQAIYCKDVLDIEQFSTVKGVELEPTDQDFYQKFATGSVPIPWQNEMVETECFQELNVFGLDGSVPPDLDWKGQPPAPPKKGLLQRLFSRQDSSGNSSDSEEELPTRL

Compound | Selectivity GRK2/GRK5 [1] [fold] | IC50 [1] [µM] | Selectivity GRK5/GRK6 [2] [fold] | IC50 [2] [µM] | IC50 [3] [µM] | fold reduction of GRK5 activity ([1]; in comparison with compound 6a) [fold] | fold enhanced GRK5 inhibitory activity ([1]; over the (R)-Boc derivative 6c) | GRK5 IC50 (in words) [1] | GRK6 IC50 (in words) [2] | activity against GRK2 (in words) [3] | selectivity over GRK2 ([1]; GRK5 vs GRK2, as stated in text)
Cc1[nH]c(/C=C2\C(=O)Nc3ccc(C(=O)N[C@H](C)c4ccc(F)cc4)cc32)c(C)c1NC(=O)[C@@H]1CCC(=O)N1 [6a, (Z)‐3‐((3,5‐Dimethyl‐4‐((S)‐5‐Oxopyrrolidine‐2‐Carboxamido)‐1H‐Pyrrol‐2‐Yl)Methylene)‐N‐((R)‐1‐(4‐Fluorophenyl)Ethyl)‐2‐Oxoindoline‐5‐Carboxamide] | 26 | 0.027 ± 0.006 | 1 | 0.02 ± 0.01 | 0.71 ± 0.4 |  |  |  |  |  | 
Cc1[nH]c(/C=C2\C(=O)Nc3ccc(C(=O)N[C@H](C)c4ccc(F)cc4)cc32)c(C)c1NC(=O)[C@H]1CCC(=O)N1 [6b, (Z)‐3‐((3,5‐Dimethyl‐4‐((R)‐5‐Oxopyrrolidine‐2‐Carboxamido)‐1H‐Pyrrol‐2‐Yl)Methylene)‐N‐((R)‐1‐(4‐Fluorophenyl)Ethyl)‐2‐Oxoindoline‐5‐Carboxamide] | 3 | 0.8 ± 0.4 | 30 | 0.028 ± 0.002 | 2.1 ± 0.2 | 30 |  |  |  |  | 
Cc1[nH]c(/C=C2\C(=O)Nc3ccc(C(=O)N[C@H](C)c4ccc(F)cc4)cc32)c(C)c1NC(=O)[C@H]1CCCN1C(=O)OC(C)(C)C [6c, Tert‐Butyl(R)‐2‐((5‐(((Z)‐5‐(((R)‐1‐(4‐Fluorophenyl)Ethyl)Carbamoyl)‐2‐Oxoindolin‐3‐Ylidene)Methyl)‐2,4‐Dimethyl‐1H‐Pyrrol‐3‐Yl)Carbamoyl)Pyrrolidine‐1‐Carboxylate] | >3 | 50 ± 30 | 35 | 1.4 ± 0.5 | 160 ± 100 |  |  |  |  |  | 
Cc1[nH]c(/C=C2\C(=O)Nc3ccc(C(=O)N[C@H](C)c4ccc(F)cc4)cc32)c(C)c1NC(=O)[C@@H]1CCCN1C(=O)OC(C)(C)C [6d, Tert‐Butyl(S)‐2‐((5‐(((Z)‐5‐(((R)‐1‐(4‐Fluorophenyl)Ethyl)Carbamoyl)‐2‐Oxoindolin‐3‐Ylidene)Methyl)‐2,4‐Dimethyl‐1H‐Pyrrol‐3‐Yl)Carbamoyl)Pyrrolidine‐1‐Carboxylate] | >2000 | 0.44 ± 0.16 |  | 9.9 ± 2 | > 1000 |  | over 100 fold |  |  |  | 
CC(=O)N1CCC[C@@H]1C(=O)Nc1c(C)[nH]c(/C=C2\C(=O)Nc3ccc(C(=O)N[C@H](C)c4ccc(F)cc4)cc32)c1C [6e, (Z)‐3‐((4‐((R)‐1‐Acetylpyrrolidine‐2‐Carboxamido)‐3,5‐Dimethyl‐1H‐Pyrrol‐2‐Yl)Methylene)‐N‐((R)‐1‐(4‐Fluorophenyl)Ethyl)‐2‐Oxoindoline‐5‐Carboxamide] | 8 | 0.04 ± 0.006 | 1 | 0.06 ± 0.02 | 0.32 ± 0.09 |  |  |  |  |  | 
CC(=O)N1CCCC1C(=O)Nc1c(C)[nH]c(C=C2C(=O)Nc3ccc(C(=O)NC(C)c4ccc(F)cc4)cc32)c1C [6f, ((Z)‐3‐((4‐((S)‐1‐Acetylpyrrolidine‐2‐Carboxamido)‐3,5‐Dimethyl‐1H‐Pyrrol‐2‐Yl)Methylene)‐N‐((R)‐1‐(4‐Fluorophenyl)Ethyl)‐2‐Oxoindoline‐5‐Carboxamide] | 15 | 0.06 ± 0.02 | 2 | 0.031 ± 0.02 | 0.9 ± 0.3 |  |  |  |  |  | 
Cc1[nH]c(/C=C2\C(=O)Nc3ccc(C(=O)N[C@H](C)c4ccc(F)cc4)cc32)c(C)c1NC(=O)[C@H]1CCCN1 [6g, (Z)‐3‐((3,5‐Dimethyl‐4‐((R)‐Pyrrolidine‐2‐Carboxamido)‐1H‐Pyrrol‐2‐yl)Methylene)‐N‐((R)‐1‐(4‐Fluorophenyl)Ethyl)‐2‐Oxoindoline‐5‐Carboxamide] | 3 | 0.04 ± 0.02 | 1 | 0.03 ± 0.002 | 0.1 ± 0.01 |  |  |  |  |  | 
Cc1[nH]c(/C=C2\C(=O)Nc3ccc(C(=O)N[C@H](C)c4ccc(F)cc4)cc32)c(C)c1NC(=O)[C@@H]1CCCN1 [6h, (Z)‐3‐((3,5‐Dimethyl‐4‐((S)‐pyrrolidine‐2‐carboxamido)‐1H‐pyrrol‐2‐yl)methylene)‐N‐((R)‐1‐(4‐fluorophenyl)ethyl)‐2‐oxoindoline‐5‐carboxamide] | 1 | 0.09 ± 0.04 | 3 | 0.034 ± 0.01 | 0.08 ± 0.01 |  |  |  |  |  | 
Cc1[nH]c(C=C2C(=O)Nc3ccc(C(=O)NC(C)c4ccc(F)cc4)cc32)c(C)c1NC(=O)C1C=CCN1C(=O)OC(C)(C)C [6i, Tert‐Butyl(S)‐2‐((5‐(((Z)‐5‐(((R)‐1‐(4‐Fluorophenyl)Ethyl)Carbamoyl)‐2‐Oxoindolin‐3‐yl‐ Idene)Methyl)‐2,4‐Dimethyl‐1H‐Pyrrol‐3‐Yl)Carbamoyl)‐2,5‐Dihydro‐1H‐Pyrrole‐1‐Carboxylate] | 130 | 0.92 ± 0.5 | 2 | 0.5 ± 0.2 | 120 ± 50 |  |  | sub‐micromolar; also recorded: low micromolar range | sub‐micromolar; also recorded: low micromolar range | little to no activity | 
Cc1[nH]c(/C=C2\C(=O)Nc3ccc(C(=O)N[C@H](C)c4ccc(F)cc4)cc32)c(C)c1NC(=O)[C@@H]1C=CCN1 [6j, (Z)‐3‐((4‐((S)‐2,5‐Dihydro‐1H‐Pyrrole‐2‐Carboxamido)‐3,5‐Dimethyl‐1H‐Pyrrol‐2‐Yl)Methylene)‐N‐((R)‐1‐(4‐Fluorophenyl)Ethyl)‐2‐Oxoindoline‐5‐Carboxamide] | 16 | 0.03 ± 0.004 | 1 | 0.03 ± 0.01 | 0.48 ± 0.4 |  |  |  |  |  | over 15 fold
Cc1[nH]c(/C=C2\C(=O)Nc3ccc(C(=O)N[C@H](C)c4ccc(F)cc4)cc32)c(C)c1NC(=O)[C@@H]1CCN(C(=O)OC(C)(C)C)C1 [6k, Tert‐Butyl(R)‐3‐((5‐(((Z)‐5‐(((R)‐1‐(4‐Fluorophenyl)Ethyl)Carbamoyl)‐2‐Oxoindolin‐3‐Ylidene)Methyl)‐2,4‐Dimethyl‐1H‐Pyrrol‐3‐Yl)Carbamoyl)Pyrrolidine‐1‐Carboxylate] | 140 | 2.1 ± 0.9 | 1 | 1.4 ± 0.2 | 300 ± 100 |  |  | low micromolar range | low micromolar range | little to no activity | 
